The results in this text go back to patent US7973219B2, “Method for producing transgenic plants resistant to weed control compounds which disrupt the porphyrin pathways of plants” (Sumitomo Chemical Company, Limited, priority 1998, dated 2011).

Common to all, as to type: cell-based, Escherichia coli
What all share (details): 1 ppm, 18 hours culture, Table 16

Assay [1] concerns E. coli BT3/pACYCSP+pHASYS4 strain. Briefly: Growth of E. coli BT3/pACYCSP+pHASYS4 with herbicidal compound. The text has this:
(§1) According to the description of Gibson, L. C. D. et al., Proc. Natl. Acad. Sci. USA, 92; p 1941 (1995), the DNA fragment containing bchH gene prepared in Example 1 was digested with the restriction enzymes NdeI and BglII. The resultant DNA fragment was inserted between NdeI restriction site and BamHI restriction site of expression vector pET11a (manufactured by Stratagene) to obtain plasmid pETBCH (FIG. 1). This plasmid pETBCH was introduced into E. coli BL21(DE3) strain competent cells (manufactured by Stratagene) according to the manual attached to the competent cells to obtain E. coli BL21(DE3)/pETBCH strain. The strain was inoculated into 1.5 ml LB liquid culture medium (1% tryptone, 0.5% yeast extract, 0.5% NaCl) containing 100 μg/ml ampicillin in a tube (14×10 mm), and the tube was covered with aluminum foil (hereinafter referred to as dark conditions), cultured with shaking at 37° C. under light of fluorescent lamp (about 8000 lux). When the absorbance at 600 nm of the liquid culture medium became about 0.6, isopropyl β-D-thiogalactopyranoside (IPTG) was added to the liquid culture medium so that the final concentration was 0.4 mM, and the culture was continued for about additional 20 hours. […]

Assay [2] concerns E. coli BT3/pACYCSP+pRASSL4 strain. Briefly: Growth of E. coli BT3/pACYCSP+pRASSL4 with herbicidal compound.
From the text: as §1, with “The strain was inoculated into 1.5 ml LB liquid culture medium (1% tryptone, 0.5% yeast extract, 0.5% NaCl) containing 100 μg/ml ampicillin in a tube (14×10 mm), and the tube was covered with aluminum foil (hereinafter referred to as dark conditions), cultured with shaking at 37° C. under light of fluorescent lamp (about 8000 lux).” left out
(§2) These E. coli strains were inoculated into YPT medium containing 1 ppm of the PPO inhibitory-type herbicidal compound represented by Structure 8, 100 μg/ml ampicillin, 15 μg/ml chloramphenicol, 10 μg/ml kanamycin, 10 μg/ml hemin and 50 μg/ml aminolevulinic acid, cultured under dark conditions or light conditions according to the same manner as in Example 2. Then, 18 hours after initiation of culture, the absorbance of the liquid culture medium was measured at 600 nm. […]

The subject of assay [3] is E. coli BT3/pACYCSP+pRASSL8 strain. Briefly: Growth of E. coli BT3/pACYCSP+pRASSL8 with herbicidal compound.
From the text: as §1, with “The strain was inoculated into 1.5 ml LB liquid culture medium (1% tryptone, 0.5% yeast extract, 0.5% NaCl) containing 100 μg/ml ampicillin in a tube (14×10 mm), and the tube was covered with aluminum foil (hereinafter referred to as dark conditions), cultured with shaking at 37° C. under light of fluorescent lamp (about 8000 lux).” left out
as §2

Turning to `C#CCOc1cc(N2C(=O)C3=C(CCCC3)C2=O)c(F)cc1Cl` [Structure 8], the Relative absorbance in assay [1] (in the dark) is on record as 1.0; in assay [1] (in the light) it was 0.91; in assay [2] (in the dark), 0.98; in assay [2] (in the light), 1.1; in assay [3] (in the dark), 1.0; in assay [3] (in the light), 0.79.
